Test system: R-28 and ARPE-19 cell line
Conditions: rat (R-28), human (ARPE-19), 48 h
Experimental: The biosafety of DONBs and excipients used in the formulation was evaluated on retinal precursor cells R-28 and retinal pigment epithelial cells (ARPE-19). The suspensions of the following cell line (100 μL, −60,000 cells/mL) were seeded into each well of a 96-well plate and cultured overnight. The cells were cultured for 24 h in the dark.
Excipient toxicity studies on ARPE-19 and R28 cell line. Cell viability was conducted with ARPE-19 and R28 cell lines, in response to treatment with nanobubble excipients, using the [3-(4, 5-dimethylthiazol-2-yl)-2, 5-diphenyl tetrazolium bromide](MTT) assay. The MTT reagent (Cat no. M6494, Thermo Fisher Scientific) was prepared by dissolving 5 mg of MTT per 1 ml of phosphate-buffered saline (Cat no. 21-040-CV, Corning), filter sterilized using a 0.22 μm filter, and stored in dark at 4° C. Yellow MTT is reduced to purple formazan in the mitochondria of living cells. Cells were grown to 80-90% confluence in a T-25 flask, dissociated using trypsin, and seeded into a 96-well plate at a density of 10000 cells per well. […] The absorbance was measured at 590 nm with a reference filter of 620 nm.

OC[C@H]1O[C@H](O[C@H]2O[C@H](CO)[C@@H](O)[C@H](O)[C@H]2O)[C@H](O)[C@@H](O)[C@@H]1O [Trehalose, D-(+)-Trehalose dihydrate]
excipient concentration producing some toxic effect on cell viability: 0.6 to 0.7 mg
